The source of these data is ChEMBL document CHEMBL1142543, “Arabinose 5-phosphate analogues as mechanistic probes for Neisseria meningitidis 3-deoxy-D-manno-octulosonate 8-phosphate synthase” (Bioorg Med Chem, 2008).

This assay has as its system Neisseria meningitidis MC58. Briefly: Activity at Neisseria meningitidis B MC58 (ATCC BAA355) recombinant 3-deoxy-D-manno-octulosonate 8-phosphate synthase expressed in Escherichia coli BL21 (DE3).

As usually defined, the kcat is the number of substrate molecules converted per active site and unit of time at saturation. On to `O=C[C@@H](O)[C@H](O)[C@@H](O)COP(=O)(O)O`, for which the kcat was 1.1 s⁻¹.

With `O=C[C@@H](O)[C@H](O)[C@H](O)COP(=O)(O)O`, the kcat was determined as 2.7 s⁻¹.
